Laboratory results from patent US9115092B2, “Substituted quinazoline and pyrido-pyrimidine derivatives” (Asana Biosciences, LLC, priority 2010, dated 2015).
pIC50: −log10 of the molar value.

What was measured:
[1] = target: T1, PI3Kα (wild-type), P110/P85α (Homo sapiens, UniProt P42336); experiment: PI3 Kinase TR-FRET assay, PI3Kα (wild-type); type: biochemical
T1 construct: made in house; host or cells: SF9 insect cells
How it was run: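 Sf9-expressed His-purified P110/P85α (5 ng) preincubated 60 min RT with compound and PIP2 in buffer with 40 mM MgCl2, 5 mM DTT; reaction started with ATP (PIP2 and ATP both 10 μM), 30 min RT. PIP3 detected by TR-FRET displacement, 665/615 nm ratio; IC50 from dose-response curves.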

PI3Kα mutation H1047R = PI3Kα mutation H1047R (Homo sapiens, UniProt P42336, H1047R); experiment: PI3 Kinase TR-FRET assay, PI3Kα mutation H1047R; type: biochemical; conditions: read-out: inhibition of PI3Kα mutation H1047R, IC50
Sequence of PI3Kα mutation H1047R (P42336 whole entry H1047R, the tested form may be a part, canonical isoform): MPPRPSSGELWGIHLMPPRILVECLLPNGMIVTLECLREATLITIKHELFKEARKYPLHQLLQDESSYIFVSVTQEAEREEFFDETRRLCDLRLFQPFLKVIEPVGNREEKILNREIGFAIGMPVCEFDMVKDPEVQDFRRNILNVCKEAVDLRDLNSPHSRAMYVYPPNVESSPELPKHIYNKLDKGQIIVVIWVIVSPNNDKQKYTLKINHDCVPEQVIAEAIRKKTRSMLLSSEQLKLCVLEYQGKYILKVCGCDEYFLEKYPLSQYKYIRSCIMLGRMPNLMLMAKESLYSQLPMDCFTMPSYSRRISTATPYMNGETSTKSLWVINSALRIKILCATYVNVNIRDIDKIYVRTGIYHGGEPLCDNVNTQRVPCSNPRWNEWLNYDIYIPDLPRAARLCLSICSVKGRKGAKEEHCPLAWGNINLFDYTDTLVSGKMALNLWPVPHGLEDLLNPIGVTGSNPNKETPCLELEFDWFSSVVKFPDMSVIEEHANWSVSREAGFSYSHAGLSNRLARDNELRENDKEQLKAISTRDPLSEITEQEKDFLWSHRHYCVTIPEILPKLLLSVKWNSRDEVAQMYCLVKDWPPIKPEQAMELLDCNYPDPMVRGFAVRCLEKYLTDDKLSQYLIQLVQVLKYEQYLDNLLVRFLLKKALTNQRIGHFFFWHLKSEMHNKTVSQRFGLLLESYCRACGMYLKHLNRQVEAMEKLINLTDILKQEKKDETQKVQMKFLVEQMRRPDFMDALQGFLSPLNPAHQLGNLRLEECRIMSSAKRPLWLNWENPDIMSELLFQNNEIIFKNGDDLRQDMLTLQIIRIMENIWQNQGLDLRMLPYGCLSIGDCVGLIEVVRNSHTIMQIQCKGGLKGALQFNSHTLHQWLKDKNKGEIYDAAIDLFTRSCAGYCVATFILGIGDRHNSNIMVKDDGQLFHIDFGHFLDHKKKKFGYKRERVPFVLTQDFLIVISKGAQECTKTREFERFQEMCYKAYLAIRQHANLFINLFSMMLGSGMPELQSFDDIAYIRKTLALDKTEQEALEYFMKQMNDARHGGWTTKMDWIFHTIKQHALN
Sequence of PI3Kα mutation H1047R (P27986 whole entry partner, the tested form may be a part, canonical isoform): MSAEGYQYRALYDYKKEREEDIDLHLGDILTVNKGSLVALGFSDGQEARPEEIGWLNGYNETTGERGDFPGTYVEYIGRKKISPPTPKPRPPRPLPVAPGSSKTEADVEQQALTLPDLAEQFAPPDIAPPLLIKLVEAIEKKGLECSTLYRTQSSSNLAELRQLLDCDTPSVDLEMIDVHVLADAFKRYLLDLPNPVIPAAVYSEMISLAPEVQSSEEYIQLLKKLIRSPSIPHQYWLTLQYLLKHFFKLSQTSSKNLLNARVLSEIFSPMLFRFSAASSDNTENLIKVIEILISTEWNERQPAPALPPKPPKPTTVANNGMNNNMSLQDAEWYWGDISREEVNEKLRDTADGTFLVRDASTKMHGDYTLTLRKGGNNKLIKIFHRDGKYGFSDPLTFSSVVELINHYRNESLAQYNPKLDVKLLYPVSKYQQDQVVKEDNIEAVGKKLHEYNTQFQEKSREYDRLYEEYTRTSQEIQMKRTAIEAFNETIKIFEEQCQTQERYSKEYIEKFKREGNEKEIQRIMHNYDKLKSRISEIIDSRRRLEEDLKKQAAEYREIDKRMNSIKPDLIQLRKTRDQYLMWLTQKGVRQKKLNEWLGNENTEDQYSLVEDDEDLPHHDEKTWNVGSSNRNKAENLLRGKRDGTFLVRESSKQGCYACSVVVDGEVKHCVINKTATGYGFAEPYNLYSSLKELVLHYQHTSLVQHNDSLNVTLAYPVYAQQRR
Protocol: (§1) The ability of compounds of the invention to inhibit PI3K activity was determined in a homogeneous TR-FRET assay using a PI3K assay kit (Millipore, USA; cat #33-016) according to manufacturer's instructions. PI3-Kinases (isoforms α, β, γ and δ) catalyze the phosphorylation of phosphatidylinositol, PIP2 to PIP3 in the presence of ATP and Mg^2+. The PIP3 product is detected by displacement of biotin-PIP3 from an energy transfer complex consisting of Europium labeled anti-GST monoclonal antibody, a GST-tagged PH domain, biotinylated PIP3 and Streptavidin-APC. Excitation of Europium in the complex results in an energy transfer to the APC and a fluorescence emission at 665 nm. The PIP3 product displaces biotin-PIP3 from the complex resulting in a loss of energy transfer and thus a decrease in signal.
(§2) To test for the ability of compounds to inhibit the activity of PI3Kα (wild-type), exemplary compounds of formula (I) were dissolved in DMSO and directly distributed into 384-well plates at a volume of 0.5 μL. 14.5 μL of P110/P85α/PIP2 mixture in buffer (obtained from the Millipore kit) containing MgCl2 (40 mM) and DTT (5 mM) was added to compound wells and incubated for 60 min at room temperature. P110/P85α was expressed in SF9 insect cells and purified nickel column extraction. Five ng of wild-type P110/P85α was used in the assay. The kinase reaction was started by the addition of ATP. The assay concentrations of both PIP2 and ATP were 10 μM. The reaction mixture was incubated for 30 min at room temperature and was terminated by the addition of stop mix and detection mix. Fluorescence was measured at 615 and 665 nm upon excitation at 340 nm in a Victor™ V5 fluorometer (Perkin Elmer, USA). The fluorescence emission ratio at 665 to 615 nm, proportional to the kinase activity, was plotted against the compound concentration to generate dose-response curves and IC50 values were determined using GraphPad Prism® 5 software.
(§3) The activity of PI3Kα mutations H1047R and E545K were assayed in a similar manner to the assay protocol described above for PI3Kα (wild type). […]

PI3Kα mutation E545K = PI3Kα mutation E545K (Homo sapiens, UniProt P42336, E545K); experiment: PI3 Kinase TR-FRET assay, PI3Kα mutation E545K; type: biochemical; conditions: read-out: inhibition of PI3Kα mutation E545K, IC50
Sequence of PI3Kα mutation E545K (P42336 whole entry E545K): as the sequence (P42336 whole entry H1047R, the tested form may be a part, canonical isoform) above, with E545K, R1047H counted along it
Sequence of PI3Kα mutation E545K (P27986 whole entry partner): as the sequence (P27986 whole entry partner, the tested form may be a part, canonical isoform) above
Protocol: as §1, §2, §3

mTOR kinase = target: T2, mTOR kinase (Homo sapiens, UniProt P42345); experiment: mTOR kinase TR-FRET assay; type: biochemical; conditions: read-out: mTO R
T2 construct: purchased Millipore, USA
How it was run: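 Compounds preincubated 60 min with mTOR (5 ng) in HEPES pH 7.5, EGTA, MnCl2; ULight-p70 S6K Thr389 peptide (50 nM) and ATP (20 μM) then added, 60 min at room temperature. EDTA-stopped, Eu-anti-phospho antibody detection by TR-FRET (665/615 nm); IC50 from variable-slope sigmoidal fit.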

PC3 cells = experiment: XTT assay for cell viability, PC3 cells; type: cell-based, human; conditions: Homo sapiens, PC-3, cell viability
How it was run: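 PC3 cells seeded at 1000 cells/well, grown 24 h, then exposed to serial dilutions of compound for 96 h. Viability read by XTT dye at 37° C, absorbance 465 nm. EC50 from sigmoidal dose-response fit.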

T1 sequence (P42336 whole entry): as the sequence (P42336 whole entry H1047R, the tested form may be a part, canonical isoform) above, with R1047H counted along it
T1 sequence (P27986 whole entry partner): as the sequence (P27986 whole entry partner, the tested form may be a part, canonical isoform) above

Row | Structure (SMILES) | pIC50 [1] | pIC50 (PI3Kα mutation H1047R) | pIC50 (PI3Kα mutation E545K) | pIC50 (mTOR kinase) | pIC50 (PC3 cells)
1 | CN(C)C(=O)c1ccc(NC(=O)Nc2ccc(-c3nc(N4CCOCC4)c4ccc(-c5cncnc5)cc4n3)cc2)cc1 [Example 1, N,N-Dimethyl-4-(3-{4-[4-morpholin-4-yl-7-pyrimidin-5-yl-quinazolin-2-yl)-phenyl]-ureido}-benzamide] | > 7.30 |  |  | > 7.30 | 6.30 to 7.00
2 | CN(C)C(=O)c1ccc(NC(=O)Nc2ccc(-c3nc(N4CCOCC4)c4ccc(-c5cncnc5)cc4n3)cc2)c(F)c1 [Example 133, 3-fluoro-N,N-dimethyl-4-(3-(4-(4-morpholino-7-(pyrimidin-5-yl)quinazolin-2-yl)phenyl)ureido)-benzamide] | > 7.30 | > 6.30 | > 6.30 | > 7.30 | 5.00 to 6.70
3 | Cc1ccc(-c2ccc3c(N4CCOCC4)nc(-c4ccc(NC(=O)Nc5ccc(C(=O)N(C)C)cc5)cc4)nc3c2)o1 [Example 2, N,N-Dimethyl-4-(3-{4-[7-(5-methyl-furan-2-yl)-4-morpholin-4-yl-quinazolin-2-yl]-phenyl}-ureido)-benzamide] | > 7.30 |  |  | > 7.30 | > 7.00

Other lines, results leading:

Row | pIC50 [1] | pIC50 (PI3Kα mutation H1047R) | pIC50 (PI3Kα mutation E545K) | pIC50 (mTOR kinase) | pIC50 (PC3 cells) | Structure (SMILES)
4 | > 7.30 | > 6.30 | > 6.30 | > 7.30 | > 7.00 | CN(C)C(=O)c1ccc(NC(=O)Nc2ccc(-c3nc(N4CCOCC4)c4ccc(-c5cccnc5)cc4n3)cc2)c(F)c1 [Example 152, 3-fluoro-N,N-dimethyl-4-(3-(4-(4-morpholino-7-(pyridin-3-yl)quinazolin-2-yl)phenyl)ureido)-benzamide]
5 | 6.70 to 7.30 | > 6.30 | > 6.30 | > 7.30 | 5.00 to 6.70 | CN(C)C(=O)c1ccc(NC(=O)Nc2ccc(-c3nc(N4CCOCC4)c4ccc(-c5cccnc5F)cc4n3)cc2)c(F)c1 [Example 146, 3-fluoro-4-(3-(4-(7-(2-fluoropyridin-3-yl)-4-morpholino-quinazolin-2-yl)phenyl)ureido)-N,N-dimethyl-benzamide]
6 | > 7.30 |  |  | > 7.30 | 6.30 to 7.00 | CN(C)C(=O)c1ccc(NC(=O)Nc2ccc(-c3nc(N4CCOCC4)c4ccc(-c5ccco5)cc4n3)cc2)cc1 [Example 51, 4-{3-[4-(7-furan-2-yl-4-morpholin-4-yl-quinazolin-2-yl)-phenyl]-ureido}-N,N-dimethyl-benzamide]
